Test results published in US12110293B2, “Substituted triazolo quinoxaline derivatives” (GRÜNENTHAL GMBH, priority 2018, dated 2024).

The compounds below were run against T1, glucocorticoid receptor (Homo sapiens, UniProt P04150) (assay: Agonistic mode of action on the glucocorticoid receptor (CHO-Gal4/GR luciferase reporter cell line)). Settings: range class observed in the agonistic assay or the antagonistic assay (CHO-Gal4/GR reporter cells); table does not say which mode applies per example.
T1 construct: expressed in transfected cells
T1 sequence (P04150 524-758 limits assumed): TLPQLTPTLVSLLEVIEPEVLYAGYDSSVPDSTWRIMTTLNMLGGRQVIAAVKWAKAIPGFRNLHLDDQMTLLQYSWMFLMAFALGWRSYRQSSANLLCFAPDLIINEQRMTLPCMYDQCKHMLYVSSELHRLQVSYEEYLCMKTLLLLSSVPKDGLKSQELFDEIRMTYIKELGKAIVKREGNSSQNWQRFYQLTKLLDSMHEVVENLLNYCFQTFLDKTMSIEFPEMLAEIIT
Assay type: cell-based
Summary of the method: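 Agonism measured as dose-dependent luciferase luminescence (FLIPR Tetra) from a GAL4-UAS reporter driven by GAL4 DBD fused to GR ligand-binding domain in stable CHO cells. Eight half-log doses, 10 μM to 0.003 μM final in 0.5% DMSO, quadruplicate, on cells seeded 24 h earlier at 5000/well; EC50 derived.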

Structure (SMILES)	IC50 or EC50 (agonist or antagonist mode not specified)
Cc1nnc2n1-c1c(cc(F)c(-c3cc(F)cc4c3ccn4CCO)c1C(F)(F)F)NC2(C)C [Example 447, 2-[6-Fluoro-4-[7-fluoro-1,4,4-trimethyl-9-(trifluoromethyl)-5H-[1,2,4]triazolo[4,3-a]quinoxalin-8-yl]-1H-indol-1-yl]-ethanol]	100 to 1000 nM
CCc1c(-c2cc(F)cc3c2ccn3CCO)c(F)cc2c1-n1c(C)nnc1C(C)(C)N2 [Example 44, 2-(4-(9-ethyl-7-fluoro-1,4,4-trimethyl-4,5-dihydro-[1,2,4]triazolo[4,3-a]quinoxalin-8-yl)-6-fluoro-1H-indol-1-yl)ethanol]	100 to 1000 nM
COc1c(-c2cccc3c2cnn3S(C)(=O)=O)c(F)cc2c1-n1c(C)nnc1C(C)(C)N2 [Example 342, 7-Fluoro-9-methoxy-1,4,4-trimethyl-8-(1-methylsulfonyl-1H-indazol-4-yl)-5H-[1,2,4]triazolo[4,3-a] quinoxaline]	1000 to 15000 nM
Cc1cc2c(-c3c(F)cc4c(c3F)-n3c(C)nnc3C(C)(C)N4)cc(F)cc2[nH]1 [Example 5, 7,9-difluoro-8-(6-fluoro-2-methyl-1H-indol-4-yl)-1,4,4-trimethyl-4,5-dihydro-[1,2,4]triazolo[4,3-a]quinoxaline]	100 to 1000 nM
Cc1nnc2n1-c1c(cc(F)c(-c3cccc4c3ccn4CCO)c1C(F)(F)F)NC2(C)C [Example 456, 2-[4-[7-Fluoro-1,4,4-trimethyl-9-(trifluoromethyl)-5H-[1,2,4]triazolo[4,3-a]quinoxalin-8-yl]-1H-indol-1-yl]-ethanol]	100 to 1000 nM
Cc1c(-c2cccc3[nH]ccc23)c(F)cc2c1-n1c(C)nnc1C(C)(C)N2 [Example 399, 7-Fluoro-8-(1H-indol-4-yl)-1,4,4,9-tetramethyl-5H-[1,2,4]triazolo[4,3-a]quinoxaline]	< 100 nM
Cc1c(-c2cc(F)cc3c2ccn3CCO)c(OC(F)(F)F)cc2c1-n1c(C)nnc1C(C)(C)N2 [Example 471, 2-[6-Fluoro-4-[1,4,4,9-tetramethyl-7-(trifluoromethyloxy)-5H-[1,2,4]triazolo[4,3-a]quinoxalin-8-yl]-1H-indol-1-yl]-ethanol]	100 to 1000 nM
Cc1nnc2n1-c1c(cc(F)c(-c3cc(F)cc4c3cnn4CC(F)F)c1F)NC2(C)C [Example 489, 8-[1-(2,2-Difluoro-ethyl)-6-fluoro-1H-indazol-4-yl]-7,9-difluoro-1,4,4-trimethyl-5H-[1,2,4]triazolo [4,3-a]quinoxaline]	< 100 nM
Cc1nnc2n1-c1c(cc(F)c(-c3ccc(F)c4[nH]ncc34)c1F)NC2(C)C [Example 501, 7,9-Difluoro-8-(7-fluoro-1H-indazol-4-yl)-1,4,4-trimethyl-5H-[1,2,4]triazolo[4,3-a]quinoxaline]	100 to 1000 nM
Cc1c(-c2cccc3c2ccn3CC(F)F)c(F)cc2c1-n1c(C)nnc1C(C)(C)N2 [Example 330, 8-[1-(2,2-Difluoro-ethyl)-1H-indol-4-yl]-7-fluoro-1,4,4,9-tetramethyl-5H-[1,2,4]triazolo[4,3-a]quinoxaline]	< 100 nM
Cc1nnc2n1-c1c(cc(F)c(-c3cccc4c3cnn4S(C)(=O)=O)c1C(F)F)NC2(C)C [Example 382, 9-(Difluoro-methyl)-7-fluoro-1,4,4-trimethyl-8-(1-methylsulfonyl-1H-indazol-4-yl)-5H-[1,2,4]triazolo[4,3-a]quinoxaline]	1000 to 15000 nM
Cc1c(-c2cccc3c2ccn3S(C)(=O)=O)c(Cl)cc2c1-n1c(C)nnc1C(C)(C)N2 [Example 317, 7-Chloro-1,4,4,9-tetramethyl-8-(1-methylsulfonyl-1H-indol-4-yl)-5H-[1,2,4]triazolo[4,3-a]quinoxaline]	1000 to 15000 nM
Cc1c(-c2cccc3c(C)n[nH]c23)c(F)cc2c1-n1c(C)nnc1C(C)(C)N2 [Example 361, 7-Fluoro-1,4,4,9-tetramethyl-8-(3-methyl-1H-indazol-7-yl)-5H-[1,2,4]triazolo[4,3-a]quinoxaline]	1000 to 15000 nM
Cc1nnc2n1-c1c(cc(F)c(-c3cccc4[nH]ccc34)c1F)NC2(C)C [Example 445, 7,9-Difluoro-8-(1H-indol-4-yl)-1,4,4-trimethyl-5H-[1,2,4] triazolo[4,3-a]quinoxaline]	< 100 nM
Cc1nnc2n1-c1c(cc(F)c(-c3cccc4c3cnn4S(C)(=O)=O)c1C(F)(F)F)NC2(C)C [Example 446, 7-fluoro-1,4,4-trimethyl-8-(1-(methylsulfonyl)-1H-indazol-4-yl)-9-(trifluoromethyl)-4,5-dihydro-[1,2,4]triazolo[4,3-a]quinoxaline]	100 to 1000 nM
CC#Cc1c[nH]c2c(-c3c(F)cc4c(c3F)-n3c(CC)nnc3C(C)(C)N4)cc(F)cc12 [Example 16, 1-ethyl-7,9-difluoro-8-(5-fluoro-3-(prop-1-yn-1-yl)-1H-indol-7-yl)-4,4-dimethyl-4,5-dihydro-[1,2,4]triazolo[4,3-a]quinoxaline]	100 to 1000 nM
Cc1nnc2n1-c1c(cc(F)c(-c3ccc(F)c4[nH]ccc34)c1C(F)F)NC2(C)C [Example 496, 9-(Difluoro-methyl)-7-fluoro-8-(7-fluoro-1H-indol-4-yl)-1,4,4-trimethyl-5H-[1,2,4]triazolo[4,3-a] quinoxaline]	< 100 nM
Cc1c(-c2ccc(C#N)c3[nH]ccc23)c(F)cc2c1-n1c(C)nnc1C(C)(C)N2 [Example 534, 4-(7-Fluoro-1,4,4,9-tetramethyl-5H-[1,2,4]triazolo[4,3-a]quinoxalin-8-yl)-1H-indole-7-carbonitrile]	100 to 1000 nM
Cc1c(-c2cc(F)cc3c2ccn3S(C)(=O)=O)ccc2c1-n1c(C)nnc1C(C)(C)N2 [Example 453, 8-(6-Fluoro-1-methylsulfonyl-1H-indol-4-yl)-1,4,4,9-tetramethyl-5H-[1,2,4]triazolo[4,3-a]quinoxaline]	< 100 nM

Continued, values first:

IC50 or EC50 (agonist or antagonist mode not specified)	Structure (SMILES)
100 to 1000 nM	COCCn1ccc2c(-c3c(F)cc4c(c3C(F)F)-n3c(C)nnc3C(C)(C)N4)cccc21 [Example 292, 9-(Difluoro-methyl)-7-fluoro-8-[1-(2-methoxy-ethyl)-1H-indol-4-yl]-1,4,4-trimethyl-5H-[1,2,4]triazolo[4,3-a]quinoxaline]
100 to 1000 nM	COCCn1ccc2c(-c3c(Cl)cc4c(c3F)-n3c(C)nnc3C(C)(C)N4)cc(F)cc21 [Example 404, 7-Chloro-9-fluoro-8-[6-fluoro-1-(2-methoxy-ethyl)-1H-indol-4-yl]-1,4,4-trimethyl-5H-[1,2,4]triazolo[4,3-a]quinoxaline]
100 to 1000 nM	Cc1c[nH]c2c(-c3c(Cl)cc4c(c3F)-n3c(C)nnc3C(C)(C)N4)cc(F)cc12 [Example 290, 7-Chloro-9-fluoro-8-(5-fluoro-3-methyl-1H-indol-7-yl)-1,4,4-trimethyl-5H-[1,2,4]triazolo[4,3-a]quinoxaline]
< 100 nM	Cc1cc(-c2c(Cl)cc3c(c2C)-n2c(C)nnc2C(C)(C)N3)c2ccn(S(C)(=O)=O)c2c1 [Example 491, 7-Chloro-1,4,4,9-tetramethyl-8-(6-methyl-1-methylsulfonyl-1H-indol-4-yl)-5H-[1,2,4]triazolo[4,3-a] quinoxaline]
100 to 1000 nM	Cc1c(-c2ccc(Cl)c3c2ccn3S(C)(=O)=O)c(F)cc2c1-n1c(C)nnc1C(C)(C)N2 [Example 525, 8-(7-Chloro-1-methylsulfonyl-1H-indol-4-yl)-7-fluoro-1,4,4,9-tetramethyl-5H-[1,2,4]triazolo [4,3-a]quinoxaline]
100 to 1000 nM	Cc1c(-c2cccc3c2ccn3C)c(Cl)cc2c1-n1c(C)nnc1C(C)(C)N2 [Example 488, 7-Chloro-1,4,4,9-tetramethyl-8-(1-methyl-1H-indol-4-yl)-5H-[1,2,4]triazolo[4,3-a]quinoxaline]
100 to 1000 nM	Cc1cc2c(c(C)c1-c1cc(F)cc3c1cnn3S(C)(=O)=O)-n1c(C)nnc1C(C)(C)N2 [Example 373, 8-(6-Fluoro-1-methylsulfonyl-1H-indazol-4-yl)-1,4,4,7,9-pentamethyl-5H-[1,2,4]triazolo[4,3-a]quinoxaline]
100 to 1000 nM	Cc1nnc2n1-c1c(cc(OC(F)F)c(-c3cccc4[nH]c(C(F)(F)F)cc34)c1F)NC2(C)C [Example 252, 7-(Difluoro-methoxy)-9-fluoro-1,4,4-trimethyl-8-[2-(trifluoromethyl)-1H-indol-4-yl]-5H-[1,2,4]triazolo[4,3-a]quinoxaline]
1000 to 15000 nM	COCCn1ccc2c(-c3c(OC(F)F)cc4c(c3F)-n3c(C)nnc3C(C)(C)N4)cc(F)cc21 [Example 394, 7-(Difluoro-methoxy)-9-fluoro-8-[6-fluoro-1-(2-methoxy-ethyl)-1H-indol-4-yl]-1,4,4-trimethyl-5H-[1,2,4]triazolo[4,3-a]quinoxaline]
< 100 nM	Cc1c[nH]c2c(-c3ccc4c(c3C(F)F)-n3c(C)nnc3C(C)(C)N4)cc(F)cc12 [Example 527, 9-(Difluoro-methyl)-8-(5-fluoro-3-methyl-1H-indol-7-yl)-1,4,4-trimethyl-5H-[1,2,4]triazolo [4,3-a]quinoxaline]
